Test results from patent US6911542B2, “Pyrazino[1′,2′:1,6]pyrido[3,4b]indole derivatives” (Lilly Icos LLC., priority 2000, dated 2005).

Target: T1, human recombinant PDE5 (Homo sapiens, UniProt O76074)
T1 construct: host or cells: Saccharomyces cerevisiae, protease-deficient strain BJ2-54 (ATCC 74465)
Assay: cGMP-PDE one-step inhibition assay, human recombinant PDE5
Format: biochemical
Conditions: 0.15 μM 8-[H3]-cGMP, 30 min incubation
Method: The compounds of structural formula (I) were tested for an ability to inhibit PDE5. The ability of a compound to inhibit PDE5 activity is related to the IC50 value for the compound, i.e., the concentration of inhibitor required for 50% inhibition of enzyme activity. The IC50 value for compounds of structural formula (I) were determined using recombinant human PDE5.
The production of recombinant human PDEs and the IC50 determinations can be accomplished by well-known methods in the art. Exemplary methods are described as follows:
Recombinant production of human PDE1B, PDE2, PDE4A, PDE4B, PDE4C, PDE4D, PDE5, and PDE7 was carried out similarly to that described in Example 7 of U.S. Pat. No. 5,702,936, incorporated herein by reference, except that the yeast transformation vector employed, which is derived from the basic ADH2 plasmid described in Price et al., Methods in Enzymology, 185, pp. 308-318 (1990), incorporated yeast ADH2 promoter and terminator sequences and the Saccharomyces cerevisiae host was the protease-deficient strain BJ2-54 deposited on Aug. 31, 1998 with the American Type Culture Collection, Manassas, Va., under accession number ATCC 74465. Transformed host cells were grown in 2×SC-leu medium, pH 6.2, with trace metals, and vitamins. After 24 hours, YEP medium-containing glycerol was added to a final concentration of 2×YET/3% glycerol. Approximately 24 hr later, cells were harvested, washed, and stored at −70° C. […]
Cell pellets (29 g) were thawed on ice with an equal volume of Lysis Buffer (25 mM Tris HCl, pH 8, 5 mM MgCl2, 0.25 mM DTT, 1 mM benzamidine, and 10 μM ZnSO4). Cells were lysed in a Microfluidizer® (Microfluidics Corp.) using nitrogen at 20,000 psi. The lysate was centrifuged and filtered through 0.45 μm disposable filters. The filtrate was applied to a 150 mL column of Q SEPHAROSE® Fast-Flow (Pharmacia). The column was washed with 1.5 volumes of Buffer A (20 mM Bis-Tris Propane, pH 6.8, 1 mM MgCl2, 0.25 mM DTT, 10 μM ZnSO4) and eluted with a step gradient of 125 mM NaCl in Buffer A followed by a linear gradient of 125-1000 mM NaCl in Buffer A. Active fractions from the linear gradient were applied to a 180 mL hydroxyapatite column in Buffer B (20 mM Bis-Tris Propane (pH 6.8), 1 mM MgCl2, 0.25 mM DTT, 10 μM ZnSO4, and 250 mM KCl). After loading, the column was washed with 2 volumes of Buffer B and eluted with a linear gradient of 0-125 mM potassium phosphate in Buffer B. Active fractions were pooled, precipitated with 60% ammonium sulfate, and resuspended in Buffer C (20 mM Bis-Tris Propane, pH 6.8, 125 mM NaCl, 0.5 mM DTT, and 10 μM ZnSO4). The pool was applied to a 140 mL column of […]® S-300 HR and eluted with Buffer C. Active fractions were diluted to 50% glycerol and stored at −20° C.
(§1) cGMP-PDE activity of compounds of the present invention was measured using a one-step assay adapted from Wells et al., Biochim. Biophys. Acta, 384, 430 (1975). The reaction medium contained 50 mM Tris-HCl, pH 7.5, 5 mM magnesium acetate, 250 μg/ml 5′-Nucleotidase, 1 mM EGTA, and 0.15 μM 8-[H^3]-cGMP. Unless otherwise indicated, the enzyme used was a human recombinant PDE5 (ICOS Corp., Bothell, Wash.).
(§2) Compounds of the invention were dissolved in DMSO finally present at 2% in the assay.

| IC50 [nM] | SMILES |
| --- | --- |
| 7.5 | O=C1[C@H]2Cc3c([nH]c4ccccc34)[C@@H](c3ccc4c(c3)OCO4)N2C(=O)CN1O [Example 2, (6R,12aR)-6-Benzo[1,3]dioxo-5-yl-2-hydroxy-2,3,6,7,12,12a-hexahydropyrazino[1′,2′:1,6]-pyrido[3,4-b]indole-1,4-dione] |
| 110 | CCCCCCCCOC(=O)CN1CC(=O)N2[C@H](c3ccc4c(c3)OCO4)c3[nH]c4ccccc4c3C[C@@H]2C1=O [Example 88] |

Target: T2, PDE5 obtained from bovine aorta (Bos taurus, UniProt Q28156)
T2 construct: from tissue; host or cells: bovine aorta
Assay: cGMP-PDE inhibition assay using PDE5 obtained from bovine aorta
Format: biochemical
Conditions: read-out: PDE5 IC50 (Bov. aorta)
Method: as §1, §2

| IC50 [nM] | SMILES |
| --- | --- |
| 70 | COc1ccc([C@@H]2c3[nH]c4ccccc4c3C[C@@H]3C(=O)N(CCN(C)C)CC(=O)N23)cc1 [Example 9] |
| 4 | COC(=O)CN1CC(=O)N2[C@H](c3ccc4c(c3)OCO4)c3[nH]c4ccccc4c3C[C@@H]2C1=O [Example 19] |
| 100 | COc1ccc([C@@H]2c3[nH]c4ccccc4c3C[C@@H]3C(=O)N(CCCN4CCN(C)CC4)CC(=O)N23)cc1 [Example 12] |
| 650 | COc1ccc([C@@H]2c3[nH]c4ccccc4c3C[C@@H]3C(=O)N(CCCN(C)C)CC(=O)N23)cc1 [Example 11] |
| 5 | O=C1[C@H]2Cc3c([nH]c4ccccc34)[C@@H](c3ccc4c(c3)OCO4)N2C(=O)CN1CCO [Example 10] |
| 10 | NC(=O)CN1CC(=O)N2[C@H](c3ccc4c(c3)OCO4)c3[nH]c4ccccc4c3C[C@@H]2C1=O [Example 20] |

System: not given
Assay: not given
Conditions: not given

| melting point | SMILES |
| --- | --- |
| 276 to 283 °C (dec.) | O=C1[C@H]2Cc3c([nH]c4ccccc34)[C@@H](c3ccc4c(c3)OCO4)N2C(=O)CN1O [Example 2, (6R,12aR)-6-Benzo[1,3]dioxo-5-yl-2-hydroxy-2,3,6,7,12,12a-hexahydropyrazino[1′,2′:1,6]-pyrido[3,4-b]indole-1,4-dione] |
